Test system: 323965-272-R-J2-PDC complex spheroid viability
Experiment: Anticancer human tumor 323965-272-R-J2-PDC patient-derived pancreatic carcinoma cell line growth inhibition [CLK]
Settings: for IC50: curve of first compound; for viability, T/C: stronger effect = lower value; active = viability on the fitted dose curve at most 10% of control; inactive = the rest
Method in brief: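 Patient-derived tumor cells grown as complex spheroids with HUVEC endothelial cells and mesenchymal stem cells, treated with drug combinations. Concentrations descend in half-log steps from near clinical Cmax, or from 10 microM if Cmax unknown.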
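Also: spheroids exposed to agents for seven days before readout.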
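For viability, T/C in this document: percent of DMSO vehicle control wells so 100% = untreated growth.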

C=CC(=O)Nc1cc(Nc2nccc(-c3cn(C)c4ccccc34)n2)c(OC)cc1N(C)CCN(C)C + CN1CCN(c2cc(C(=O)Nc3cc4cc(-c5cnn(C)c5)ccc4cn3)ccn2)CC1
inactive: viability, T/C (second compound 0.0316 µM, first compound 0.000949 µM) 92.1% | viability, T/C (second compound 0.0316 µM, first compound 0.003 µM) 86.8% | viability, T/C (second compound 0.0316 µM, first compound 0.00949 µM) 89.3% | viability, T/C (second compound 0.0316 µM, first compound 0.03 µM) 89.6% | viability, T/C (second compound 0.0316 µM, first compound 0.0949 µM) 82% | viability, T/C (second compound 0.0316 µM, first compound 0.3 µM) 75.8% | viability, T/C (second compound 0.1 µM, first compound 0.000949 µM) 73.2% | viability, T/C (second compound 0.1 µM, first compound 0.003 µM) 76.4% | viability, T/C (second compound 0.1 µM, first compound 0.00949 µM) 59.1% | viability, T/C (second compound 0.1 µM, first compound 0.03 µM) 61.8% | viability, T/C (second compound 0.1 µM, first compound 0.0949 µM) 52.2% | viability, T/C (second compound 0.1 µM, first compound 0.3 µM) 51.4% | viability, T/C (second compound 0.316 µM, first compound 0.000949 µM) 21.9% | viability, T/C (second compound 0.316 µM, first compound 0.003 µM) 26.8% | viability, T/C (second compound 0.316 µM, first compound 0.00949 µM) 21.4% | viability, T/C (second compound 0.316 µM, first compound 0.03 µM) 19.1% | viability, T/C (second compound 0.316 µM, first compound 0.0949 µM) 17.7% | viability, T/C (second compound 0.316 µM, first compound 0.3 µM) 17.3%
active: viability, T/C (second compound 1 µM, first compound 0.000949 µM) 3.35% | viability, T/C (second compound 1 µM, first compound 0.003 µM) 2.76% | viability, T/C (second compound 1 µM, first compound 0.00949 µM) 7.03% | viability, T/C (second compound 1 µM, first compound 0.03 µM) 2.91% | viability, T/C (second compound 1 µM, first compound 0.0949 µM) 2.48% | viability, T/C (second compound 1 µM, first compound 0.3 µM) 2.38% | viability, T/C (second compound 3.16 µM, first compound 0.000949 µM) 3.68% | viability, T/C (second compound 3.16 µM, first compound 0.003 µM) 3.94% | viability, T/C (second compound 3.16 µM, first compound 0.00949 µM) 5.04% | viability, T/C (second compound 3.16 µM, first compound 0.03 µM) 2.7% | viability, T/C (second compound 3.16 µM, first compound 0.0949 µM) 2.6% | viability, T/C (second compound 3.16 µM, first compound 0.3 µM) 3.13% | viability, T/C (second compound 10 µM, first compound 0.000949 µM) 4.03% | viability, T/C (second compound 10 µM, first compound 0.003 µM) 4.64% | viability, T/C (second compound 10 µM, first compound 0.00949 µM) 4.92% | viability, T/C (second compound 10 µM, first compound 0.03 µM) 3.05% | viability, T/C (second compound 10 µM, first compound 0.0949 µM) 2.71% | viability, T/C (second compound 10 µM, first compound 0.3 µM) 3.08%
< 0.000949 µM: IC50 (second compound 0.316 µM) | IC50 (second compound 1 µM) | IC50 (second compound 3.16 µM) | IC50 (second compound 10 µM)
> 0.3 µM: IC50 (second compound 0.0316 µM) | IC50 (second compound 0.1 µM)

O=C(c1cc(Cc2n[nH]c(=O)c3ccccc23)ccc1F)N1CCN(C(=O)C2CC2)CC1 + CN1CCN(c2cc(C(=O)Nc3cc4cc(-c5cnn(C)c5)ccc4cn3)ccn2)CC1
> 10 µM: IC50 (second compound 0.0316 µM) | IC50 (second compound 0.1 µM)
inactive: viability, T/C (second compound 0.0316 µM, first compound 0.0316 µM) 91.1% | viability, T/C (second compound 0.0316 µM, first compound 0.1 µM) 93.4% | viability, T/C (second compound 0.0316 µM, first compound 0.316 µM) 87.4% | viability, T/C (second compound 0.0316 µM, first compound 1 µM) 102% | viability, T/C (second compound 0.0316 µM, first compound 3.16 µM) 93.5% | viability, T/C (second compound 0.0316 µM, first compound 10 µM) 80.2% | viability, T/C (second compound 0.1 µM, first compound 0.0316 µM) 70.6% | viability, T/C (second compound 0.1 µM, first compound 0.1 µM) 81.2% | viability, T/C (second compound 0.1 µM, first compound 0.316 µM) 68.7% | viability, T/C (second compound 0.1 µM, first compound 1 µM) 64.8% | viability, T/C (second compound 0.1 µM, first compound 3.16 µM) 65.6% | viability, T/C (second compound 0.1 µM, first compound 10 µM) 56.2% | viability, T/C (second compound 0.316 µM, first compound 0.0316 µM) 23.2% | viability, T/C (second compound 0.316 µM, first compound 0.1 µM) 26.9% | viability, T/C (second compound 0.316 µM, first compound 0.316 µM) 22.6% | viability, T/C (second compound 0.316 µM, first compound 1 µM) 26.6% | viability, T/C (second compound 0.316 µM, first compound 3.16 µM) 24.9% | viability, T/C (second compound 0.316 µM, first compound 10 µM) 26.9%
active: viability, T/C (second compound 1 µM, first compound 0.0316 µM) 4.07% | viability, T/C (second compound 1 µM, first compound 0.1 µM) 7.03% | viability, T/C (second compound 1 µM, first compound 0.316 µM) 3.28% | viability, T/C (second compound 1 µM, first compound 1 µM) 3.68% | viability, T/C (second compound 1 µM, first compound 3.16 µM) 3.67% | viability, T/C (second compound 1 µM, first compound 10 µM) 3.82% | viability, T/C (second compound 3.16 µM, first compound 0.0316 µM) 5.15% | viability, T/C (second compound 3.16 µM, first compound 0.1 µM) 4.92% | viability, T/C (second compound 3.16 µM, first compound 0.316 µM) 4.78% | viability, T/C (second compound 3.16 µM, first compound 1 µM) 4.57% | viability, T/C (second compound 3.16 µM, first compound 3.16 µM) 5.09% | viability, T/C (second compound 3.16 µM, first compound 10 µM) 7.05% | viability, T/C (second compound 10 µM, first compound 0.0316 µM) 4.14% | viability, T/C (second compound 10 µM, first compound 0.1 µM) 5.28% | viability, T/C (second compound 10 µM, first compound 0.316 µM) 5.97% | viability, T/C (second compound 10 µM, first compound 1 µM) 4.83% | viability, T/C (second compound 10 µM, first compound 3.16 µM) 4.72% | viability, T/C (second compound 10 µM, first compound 10 µM) 6.29%
< 0.0316 µM: IC50 (second compound 0.316 µM) | IC50 (second compound 1 µM) | IC50 (second compound 3.16 µM) | IC50 (second compound 10 µM)
